Results reported in patent US20130164249A1, “COMPOSITIONS AND METHODS FOR INHIBITING VIRAL AND BACTERIAL ACTIVITY” (priority 2007, published 2013).

Key:
[1] = SPR reference surface (nonfunctionalized dextran); format: binding; conditions: pH 7.5, raw SPR data
Procedure: (§1) Two commercially available functionalized phenylboronic acids (Frontier Scientific, Logan Utah) were screened to compare the effect of electron withdrawing substituents (2,5-difluorophenylboronic acid, 1, FIG. 3a), versus a ortho-hydroxymethyl substituent (2-hydroxymethylphenylboronic acid, 2, FIG. 3a) prepared at 50 mM concentrations in 25 mM buffers at the appropriate pH (pH 5.5 acetate buffer, pH 7.5 phosphate buffer, and pH 9.5 carbonate buffer). HIV-1 CN54 gp120 with a molecular weight of 130 kDa was obtained from the NIH AIDS Research and Reference Reagent Program (Division of AIDS, NIH). CN54 gp120 was attached to a CM4 sensor chip using standard amine coupling chemistry with a density of 10,000 RU. Briefly, using HBS-P as the running buffer, the carboxymethyl dextran surface of a surface Plasmon resonance (SPR) chip (CM4 chip, Biacore) was activated with an injection of a 1:1 ratio of 0.4M 1-ethyl-3-(3-dimethylaminopropyl)carbodiimide hydrochloride (EDC)/0.1M N-hydroxysuccinimide (NHS). CN54 gp120 in 10 mM sodium acetate (pH 5.5) was then coupled to the surface. The remaining activated groups were then blocked by an injection of 1M ethanolamine (pH 8.5).

[2] = target: HIV-1 CN54 gp120; test: Surface plasmon resonance screening of phenylboronic acid ligands with HIV gp120; format: binding; conditions: SPR, 25° C., 1:1 interaction model, pH 5.5 / 7.5 / 9.5 buffers
Procedure: Two commercially available functionalized phenylboronic acids (Frontier Scientific, Logan Utah) were screened to compare the effect of electron withdrawing substituents (2,5-difluorophenylboronic acid, 1, FIG. 3a), versus a ortho-hydroxymethyl substituent (2-hydroxymethylphenylboronic acid, 2, FIG. 3a) prepared at 50 mM concentrations in 25 mM buffers at the appropriate pH (pH 5.5 acetate buffer, pH 7.5 phosphate buffer, and pH 9.5 carbonate buffer). HIV-1 CN54 gp120 with a molecular weight of 130 kDa was obtained from the NIH AIDS Research and Reference Reagent Program (Division of AIDS, NIH). CN54 gp120 was attached to a CM4 sensor chip using standard amine coupling chemistry with a density of 10,000 RU. […] Affinity for the gp120 functionalized surface was determined by comparing raw data to three reference cells: two of the unactivated CM4 surfaces, and an activated CM4 surface capped completely by ethanolamine. […] The association and dissociation phases were monitored for 1-3 min and 3-10 min respectively. Data was fitted to a 1:1 interaction model and the apparent affinity, KD, was determined using Scrubber II software. […]
Binding affinities in the presence of the seminal component fructose were also analyzed. […]

[3] = Solubility of ligand in buffer for SPR; format: physicochemical; conditions: pH 5.5
Procedure: as §1

Compound	binding to nonfunctionalized dextran surface [1]	apparent affinity, KD, to gp120 functionalized surface [2]	solubility [3]
OB(O)c1cc(F)ccc1F [compound 1, 2,5-difluorophenylboronic acid]	no binding		
OCc1ccccc1B(O)O [compound 2, 2-hydroxymethylphenylboronic acid]		slightly higher affinity compared to the more acidic 1	not soluble
